Data on 3 compounds can be found in US20160333404A1, “METHODS FOR TREATING HCV” (priority 2012, published 2016).

Experiment [1] deals with miR-122. The experiment can be described thus: Serum miR-122 expression by microRNA real-time PCR, Example 2, 3 days polymerase inhibitor monotherapy then with P/R. It counts as in vivo, human. The conditions noted are these: treatment-naïve GT1 subjects, day 3 vs day 1. The method, then:
Sample preparation and microRNA real-time PCR. Serum samples were collected at baseline (“BASE”), week 2 on-treatment (“W2”), week 10 on-treatment (“W10”), and 8 weeks after completing the 12 week regimen (“Post Week 8”) and frozen until analysis. Total RNA was extracted from serum using the Qiagen miRNeasy® Mini Kit. Serum was thawed on ice and centrifuged at 3000×g for 5 min in a 4° C. microcentrifuge. An aliquot of 200 μL of serum per sample was transferred to a new microcentrifuge tube and 750 μl of a Qiazol mixture containing 1.25 μg/mL of MS2 bacteriophage RNA was added to the serum. The tube was mixed and incubated for 5 min followed by the addition of 200 μL chloroform. […]
15 μl RNA was reverse transcribed in 75 μl reactions using the miRCURY LNA™ Universal RT microRNA PCR, Polyadenylation and cDNA synthesis kit (Exiqon). cDNA was diluted 50× and assayed in 10 ul PCR reactions according to the protocol for miRCURY LNA™ Universal RT microRNA PCR; each microRNA was assayed once by qPCR on the microRNA Ready-to-Use PCR, Human panel I and panel II. […] The amplification curves were analyzed using the Roche LC software, both for determination of Cp (by the 2nd derivative method) and for melting curve analysis. All data was normalized to the average of assays detected in all samples (average—assay Cp). […]
In general terms: In qPCR the cycle at which signal appears reflects the starting amount.

The test system of experiment [2] is miR-122. The experiment can be described thus: Serum miR-122 levels with or without RBV, genotype 2 and 3 patients that achieved SVR (FIG. 7). It counts as in vivo, human. The settings on record: HCV 2 and 3 subjects who achieve SVR on Compound 1/r with Compound 3; presence n=13, absence n=9. An excerpt:
Sample preparation and microRNA real-time PCR. Serum samples were collected at baseline (“Baseline”), day 3 on-treatment (“Day 3”), week 2 on-treatment (“Week 2”), week 10 on-treatment (“Week 10”), and 8 weeks after completing the 12 week regimen (“PT Week 8”) and frozen until analysis. Samples were processed as described in Example 1.
In HCV 2 and 3 subjects who achieve SVR, miR-122 levels are not affected by the presence (n=13) or absence (n=9) of RBV.

As to `COc1c(-c2ccc3cc(NS(C)(=O)=O)ccc3c2)cc(-n2ccc(=O)[nH]c2=O)cc1C(C)(C)C` [Compound 2, N-(6-(3-tert-butyl-5-(2,4-dioxo-3,4-dihydropyrimidin-1(2H)-yl)-2-methoxyphenyl)naphthalen-2-yl)methanesulfonamide], the “Levels of miR-122 after three days of polymerase inhibitor alone” value in experiment [1] was “decreased”.

For `COc1c(/C=C/c2ccc(NS(C)(=O)=O)cc2)cc(-n2ccc(=O)[nH]c2=O)cc1C(C)(C)C` [Compound 4, (E)-N-(4-(3-tert-butyl-5-(2,4-dioxo-3,4-dihydropyrimidin-1(2H)-yl)-2-methoxystyryl)phenyl)methanesulfonamide], the “Levels of miR-122 after three days of polymerase inhibitor alone” value in experiment [1] is “decreased”.

Regarding `NC(=O)c1ncn([C@@H]2O[C@H](CO)[C@@H](O)[C@H]2O)n1` [RBV, ribavirin], the “effect of presence or absence of RBV on miR-122 levels” value in experiment [2] is reported as “not affected”.
